Data as given in patent US10633407B2, “14-membered ketolides and methods of their preparation and use” (President and Fellows of Harvard College, priority 2014, dated 2020).
In brackets after ≈: the same amount, converted by molar mass. Like-named read-outs stand apart in the source and are kept apart here.

How the values were obtained:
Experiment in all cases: CLSI broth dilution MIC determination
Type in all cases: cell-based
[1] = tested on: E. faecalis ATCC 29212
[2] = tested on: K. pneumoniae KPC-2
[3] = tested on: A. baumannii imipenem-resistant
[4] = tested on: P. aeruginosa ATCC 27853
[5] = tested on: E. faecalis Vancomycin-resistant; conditions: E. faecalis Vancomycin-resistant; Gram-positive
[6] = tested on: E. coli TEM-1
Summary of the method: (§1)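 CLSI broth-dilution MIC. Controls: azithromycin, solithromycin (many cases). Macrolide-resistance genotypes constitutive or inducible.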

[7] = tested on: S. aureus erm A genotype
Summary of the method: as §1

[8] = tested on: S. pneumoniae erm B + tet(M,O) genotype; conditions: Streptococcus pneumoniae
Summary of the method: as §1

[9] = tested on: S. aureus MRSA: USA100
Summary of the method: as §1

[10] = tested on: E. coli ATCC 25922
Summary of the method: as §1

[11] = tested on: E. coli NDM-1
Summary of the method: as §1

[12] = tested on: S. aureus MRSA: USA300
Summary of the method: as §1

[13] = tested on: S. pneumoniae ATCC 49619; conditions: S. pneumoniae ATCC 49619; Gram-positive
Summary of the method: as §1

[14] = tested on: S. pneumoniae erm B + mef A genotype
Summary of the method: as §1

[15] = tested on: E. coli CTX-M-14
Summary of the method: as §1

[16] = tested on: K. pneumoniae TEM-10
[17] = tested on: H. influenzae ATCC49247
Summary of the method: as §1

[18] = tested on: S. aureus ATCC 29213
Summary of the method: as §1

[19] = tested on: S. aureus USA600, GISA
Summary of the method: as §1

[20] = tested on: S. pneumoniae mef A genotype (second strain so labelled)
Summary of the method: as §1

[21] = tested on: A. baumannii chromosomal class C
[22] = tested on: S. pyogenes Macrolide-resistant; conditions: S. pyogenes Macrolide-resistant; Gram-positive
[23] = tested on: A. baumannii IMP-4
[24] = tested on: K. pneumoniae ATCC 10031
[25] = tested on: K. pneumoniae SHV-12
[26] = tested on: S. pyogenes ATCC 19615; conditions: S. pyogenes ATCC 19615; Gram-positive
[27] = tested on: A. baumannii ATCC 19606
[28] = tested on: H. influenzae Erythro >4, Azithro 1
Description: MIC data was collected for the novel macrolides that this platform has produced against over 21 unique strains of B. subtilis, E. coli, S. aureus, S. pneumoniae, and H. influenzae, including several multidrug-resistant strains, with a special focus on macrolide resistant mechanisms (vide supra). […] CLSI standard procedures for broth dilution MIC determination were used. […] These genotypes can be constitutive or inducible.

[29] = tested on: P. aeruginosa HPA101-1477
[30] = Acinetobacter baumannii, read-out: MIC
[31] = Haemophilus influenzae, read-out: MIC

## CC[C@H]1OC(=O)[C@@](C)(F)C(=O)[C@H](C)[C@@H](OC2OC(C)CC(N(C)C)C2O)[C@](C)(OC)C[C@@H](C)C(=O)[C@H](C)[C@H]2N(CCCCn3cc(-c4cccc(N)c4)nn3)C(=O)O[C@]12C (stereo partly shown) [Solithro, solithromycin, reference compound]
[1]; E. faecalis ATCC 29212 (MP-24)
  MIC: 0.03 µg/mL (≈ 0.0355 µM)
[1]; E. faecalis ATCC 29212, Gram-positive
  MIC: < 0.0312 µg/mL
[1]; Enterococcus faecalis, ATCC29212, E. faecalis ATCC 29212 (MP-24), read-out: MIC
  MIC: < 0.0312 µg/mL
[2]; Gram-negative
  MIC: > 32 µg/mL
[2]; Klebsiella pneumoniae, KPC2, read-out: MIC
  MIC: > 32 µg/mL
[3]; [30]
  MIC: 4 µg/mL (≈ 4.73 µM)
[3]; Gram-negative
  MIC: 4 µg/mL (≈ 4.73 µM)
[4]; P. aeruginosa ATCC 27853, Gram-negative
  MIC: > 32 µg/mL
[4]; Pseudomonas aeruginosa, ATCC27853, P. aeruginosa ATCC 27853 (MP-3), read-out: MIC
  MIC: > 32 µg/mL
[5]
  MIC: 32 µg/mL (≈ 37.9 µM)
[6]; E. coli TEM-1, Gram-negative
  MIC: 32 µg/mL (≈ 37.9 µM)
[6]; Escherichia coli, TEM1
  MIC: 32 µg/mL (≈ 37.9 µM)
[7]; S. aureus erm A genotype, Gram-positive
  MIC: > 32 µg/mL
[7]; Staphylococcus aureus, S. aureus erm A genotype (MP-620 UNT-146), read-out: MIC
  MIC: > 32 µg/mL
[8]
  MIC: < 0.0312 µg/mL
[9]; S. aureus MRSA: USA100, Gram-positive
  MIC: > 32 µg/mL
[9]; Staphylococcus aureus, S. aureus MRSA: USA100 (MP-618 UNT-096), read-out: MIC
  MIC: > 32 µg/mL
[10]; E. coli ATCC 25922 (MP-4)
  MIC: 16 µg/mL (≈ 18.9 µM)
[10]; E. coli ATCC 25922, Gram-negative
  MIC: 32 µg/mL (≈ 37.9 µM)
[10]; Escherichia coli, ATCC25922, E. coli ATCC 25922 (MP-4), read-out: MIC
  MIC: 32 µg/mL (≈ 37.9 µM)
[11]; Escherichia coli, NDM1, read-out: MIC
  MIC: > 32 µg/mL
[11]; Gram-negative
  MIC: > 32 µg/mL
[12]; S. aureus MRSA: USA300, Gram-positive
  MIC: 1 µg/mL (≈ 1.18 µM)
[12]; Staphylococcus aureus, S. aureus MRSA: USA300 (MP-549, msr(a))
  MIC: 0.125 µg/mL (≈ 0.148 µM)
[12]; Staphylococcus aureus, S. aureus MRSA: USA300 (MP-549, msr(a)), read-out: MIC
  MIC: 1 µg/mL (≈ 1.18 µM)
[13]
  MIC: < 0.0312 µg/mL
[14]; S. pneumoniae erm B + mef A genotype, Gram-positive
  MIC: 0.25 µg/mL
[14]; Streptococcus pneumoniae
  MIC: 0.25 µg/mL (≈ 0.296 µM)
[15]; Escherichia coli, CTXM14, read-out: MIC
  MIC: > 32 µg/mL
[15]; Gram-negative
  MIC: > 32 µg/mL
[16]; Gram-negative
  MIC: > 32 µg/mL
[16]; Klebsiella pneumoniae, TEM10, read-out: MIC
  MIC: > 32 µg/mL
[17]; Gram-negative
  MIC: 4 µg/mL (≈ 4.73 µM)
[17]; [31]
  MIC: 4 µg/mL (≈ 4.73 µM)
[18]; S. aureus ATCC 29213, Gram-positive
  MIC: 0.125 µg/mL (≈ 0.148 µM)
[18]; Staphylococcus aureus, ATCC29213
  MIC: 0.125 µg/mL (≈ 0.148 µM)
[19]; S. aureus USA600, GISA, Gram-positive
  MIC: > 32 µg/mL
[19]; Staphylococcus aureus, S. aureus USA600, GISA (MP-619 UNT-120), read-out: MIC
  MIC: > 32 µg/mL
[20]; Gram-positive
  MIC: 0.125 µg/mL (≈ 0.148 µM)
[20]; Streptococcus pneumoniae, second strain (MP-627 UNT-039)
  MIC: 0.125 µg/mL (≈ 0.148 µM)
[20]; Streptococcus pneumoniae, second strain (MP-627 UNT-039), read-out: MIC
  MIC: < 0.015 µg/mL
[21]; [30]
  MIC: 8 µg/mL (≈ 9.47 µM)
[21]; Gram-negative
  MIC: 8 µg/mL (≈ 9.47 µM)
[22]
  MIC: 0.0625 µg/mL (≈ 0.074 µM)
[23]; Acinetobacter baumannii, IMP4, read-out: MIC
  MIC: > 32 µg/mL
[23]; Gram-negative
  MIC: > 32 µg/mL
[24]; K. pneumoniae ATCC 10031 (MP-14)
  MIC: 4 µg/mL (≈ 4.73 µM)
[24]; K. pneumoniae ATCC 10031, Gram-negative
  MIC: 8 µg/mL (≈ 9.47 µM)
[24]; Klebsiella pneumoniae, ATCC10031, K. pneumoniae ATCC 10031 (MP-14), read-out: MIC
  MIC: 8 µg/mL (≈ 9.47 µM)
[25]; Gram-negative
  MIC: > 32 µg/mL
[25]; Klebsiella pneumoniae, SHV12, read-out: MIC
  MIC: > 32 µg/mL
[26]
  MIC: < 0.0312 µg/mL
[27]; A. baumannii ATCC 19606, Gram-negative
  MIC: 8 µg/mL (≈ 9.47 µM)
[27]; Acinetobacter baumannii, ATCC19606, A. baumannii ATCC 19606 (MP-15), read-out: MIC
  MIC: 8 µg/mL (≈ 9.47 µM)
[28]; H. influenzae Erythro >4, Azithro 1, Gram-negative
  MIC: 2 µg/mL (≈ 2.37 µM)
[28]; [31]
  MIC: 2 µg/mL (≈ 2.37 µM)
[29]; Gram-negative
  MIC: > 32 µg/mL
[29]; Pseudomonas aeruginosa, HPA1011477, read-out: MIC
  MIC: > 32 µg/mL
